Patent US20130025073A1, “DETERGENT COMPOSITIONS” (priority 2011, published 2013)

Target: T1, Protease (Purafect Prime®) (Bacillus amyloliquefaciens, UniProt P00782, Y324L)
T1 construct: purchased Genencor International, Palo Alto Purafect Prime®
Assay: Stability of Protease in amine neutralized-anionic surfactant-containing detergent (Example 10) after incubation
Assay type: physicochemical
Conditions: Detergent example 10, pH 8.2, 3 weeks and 6 weeks 30° C., versus a nil PBA reference
Protocol: Test of stability of Protease in an Amine Neutralized-Anionic Surfactant-Containing Detergent after Incubation in Detergent, Example 10, at pH 8.2
A detergent composition, example 10, nil enzyme, nil calcium chloride dihydrate and nil phenylboronic acid (PBA), balanced to pH 8.2 using monoethanolamine, was prepared.
The protease, that sold under the trade name of Purafect Prime®, by Genencor International, Palo Alto (38.7 mg active Protease protein in 100 g detergent), was added to the above detergent. Each detergent sample was determined for the initial residual enzyme activity before incubation (Initial reference samples).
The residual enzyme activity for each sample was determined after incubation at 30° C. for 3 weeks and 6 weeks and compared to their reference sample. The residual activity was determined using the standard enzyme activity assays for the relevant enzyme.
Detergent formulations A-D, 5 g pH 8.2, were placed in duplicate into a 7 ml glass vial with an air tight lid. The residual enzyme activity was determined for the initial samples, in duplicate, before incubation.
The samples were placed into an incubator for 3 weeks and 6 weeks at 30° C. Immediately after incubation, the samples were analysed for both residual Protease. In this test the residual activity of 100% equals no loss of Protease activity compared to initial residual enzyme activity before incubation.

T1 sequence (P00782 108-382 Y324L): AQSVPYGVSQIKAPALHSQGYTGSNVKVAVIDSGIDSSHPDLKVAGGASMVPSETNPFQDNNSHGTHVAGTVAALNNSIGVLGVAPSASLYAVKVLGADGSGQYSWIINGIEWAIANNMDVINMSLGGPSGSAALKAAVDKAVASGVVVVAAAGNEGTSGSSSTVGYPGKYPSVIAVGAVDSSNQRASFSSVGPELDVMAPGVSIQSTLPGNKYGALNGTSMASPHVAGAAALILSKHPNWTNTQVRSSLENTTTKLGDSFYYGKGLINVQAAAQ

## OB(O)c1ccccc1 [PBA, phenylboronic acid]
  Effect of PBA addition on stability of the Protease: significantly improves stability of the Protease
